Laboratory results published in PubChem BioAssay (NCI).
Where “and” joins values, the source holds several entries; their conditions need not be identical. Equal entries are not always repeated.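 Test compounds were applied to cells in 96-well plates for 48 hours at 5 doses. The concentration for 50% growth inhibition is given as GI50. The concentration for full growth arrest is given as TGI.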

Tests used:
Experiment in all cases: NCI tumour cell line growth inhibition, 48 h
T-47D breast = tested on: T-47D breast
786-0 renal = tested on: 786-0 renal
MCF7 breast = tested on: MCF7 breast
SNB-75 CNS = tested on: SNB-75 CNS
DU-145 prostate = tested on: DU-145 prostate
HL-60(TB) leukemia = tested on: HL-60(TB) leukemia
OVCAR-8 ovarian = tested on: OVCAR-8 ovarian
COLO 205 colon = tested on: COLO 205 colon
SK-MEL-2 melanoma = tested on: SK-MEL-2 melanoma
CCRF-CEM leukemia = tested on: CCRF-CEM leukemia
MDA-N = tested on: MDA-N

Row | SMILES | TGI (T-47D breast) | TGI (786-0 renal) | TGI (MCF7 breast) | TGI (SNB-75 CNS) | TGI (DU-145 prostate) | TGI (HL-60(TB) leukemia) | TGI (OVCAR-8 ovarian) | TGI (COLO 205 colon) | TGI (SK-MEL-2 melanoma) | TGI (CCRF-CEM leukemia) | TGI (MDA-N) | GI50 (MCF7 breast)
1 | O=C(CSCC(=O)N/N=C\c1cccc(Br)c1)N/N=C\c1cccc(Br)c1 | 54.6 µM | 35.5 µM | > 100 µM | 39.4 µM | 48.3 µM | > 100 µM | 35.4 µM | > 100 µM | 91.3 µM | – | – | –
2 | CCC(C)Cn1c(C)nc2c1C(=O)c1ccccc1C2=O (configuration not stated) | – | 75.4 µM | – | > 100 µM | – | 28.5 µM | > 100 µM | 87.5 µM | 76.5 µM | 96.8 µM | – | –
3 | CN(C)CCSc1nccc(-c2ccc(-c3ccnc(SCCN(C)C)n3)s2)n1 | – | – | 16.9 µM | 28.2 µM | – | 6.01 µM | 31.4 µM | 21.7 µM | 29.5 µM | 17.4 µM | – | –
4 | [O-][n+]1cc(SCc2ccccc2)ncc1SCc1ccccc1 | > 10 µM | > 10 µM | > 10 µM | > 10 µM | > 10 µM | > 10 µM | > 10 µM | > 10 µM | > 10 µM | > 10 µM | – | –
5 | CCOC(=O)N1c2c(c3ccccc3n2C(=O)OCC)C(=O)C(OC)N1C(=O)OCC (configuration not stated) | – | > 100 µM | > 100 µM | – | > 100 µM | 49.8 µM | > 100 µM | 28.9 µM | 36.4 µM | > 100 µM | > 100 µM | –
6 | CCCCCC(=O)OCC1(CO)C/C(=C/CC(C(C)C)C(C)C)C(=O)O1 (configuration not stated) | > 75 µM | > 75 µM | > 75 µM | > 75 µM | > 75 µM | – | > 75 µM | > 75 µM | > 75 µM | 68.7 µM | > 75 µM | –
7 | Cn1c(-c2cccs2)cc(-c2ccsc2)c1-c1ccsc1 | 59.6 µM | > 100 µM | > 100 µM | > 100 µM | > 100 µM | – | > 100 µM | > 100 µM | – | > 100 µM | > 100 µM | –
8 | CC1[C@@H]2C[C@@H]3O[C@@]34[C@H]3CCC5Cc6nc7c(nc6C[C@@]5(C)C3(O)CC(=O)[C@@]24CO[C@]12OC(C)(C)CC2O)CC1CC[C@@H]2C3=C[C@H]4O[C@@]5(O[C@@](C)(CO)C[C@@H]5O)C(C)[C@@]4(O)[C@]3(C)[C@@H](O)CC2[C@]1(C)C7 (some centres not stated) | – | – | > 3.52 µM | 0.028 µM | – | 0.0305 µM | > 3.52 µM | 0.156 µM | 0.863 µM | 0.0413 µM | – | –
9 | O=S1(=O)OCCOS(=O)(=O)C1S(=O)(=O)c1cccc2ccccc12 | – | > 100 µM | > 100 µM | – | > 100 µM | > 100 µM | > 100 µM | > 100 µM | > 100 µM | > 100 µM | > 100 µM | –
10 | CC(=O)c1nc(C#N)c(N)o1 | > 100 µM | > 100 µM | > 100 µM | > 100 µM | > 100 µM | – | > 100 µM | > 100 µM | > 100 µM | > 100 µM | > 100 µM | –
11 | Cc1cc(C)c(N)c(CO)c1 | – | > 100 µM | > 100 µM | > 100 µM | > 100 µM | – | > 100 µM | > 100 µM | > 100 µM | > 100 µM | > 100 µM | 7.28 µM and 16 µM
12 | Nc1nn2cc(-c3ccccc3)[n+](CC(=O)c3ccccc3)c2s1 | 55 µM | 40.2 µM | 24.6 µM | – | > 100 µM | > 100 µM | > 100 µM | 29.3 µM | 30.4 µM | 54.6 µM | > 100 µM | –
13 | Cc1cccc(-c2cc(=O)c3cc(C)cnc3[nH]2)c1 | > 100 µM | > 100 µM | – | > 100 µM | 13.3 µM | 0.355 µM | – | 0.382 µM | > 100 µM | 36.9 µM | – | –
14 | C[S+](C)C1(c2ccccc2)C(=O)c2ccccc2C1=O | 92.1 µM | > 100 µM | > 100 µM | > 89.2 µM | > 100 µM | > 31.6 µM | > 100 µM | > 100 µM | > 73.2 µM | > 85.8 µM | – | –
15 | CO/C=C(/C(=O)OC)c1ccccc1[C@H]1C[C@@H]1c1ccccc1 | 63.1 µM | > 100 µM | > 100 µM | – | > 100 µM | 63.3 µM | > 100 µM | 27.6 µM | 34.8 µM | > 100 µM | 71.9 µM | –
16 | S=C1NNC(=S)NN1 | > 1 µM | > 1 µM | > 1 µM | – | > 1 µM | > 1 µM | > 1 µM | > 1 µM | > 1 µM | > 1 µM | > 1 µM | –
17 | NS(=O)(=O)c1ccc(NS(=O)(=O)c2ccc(NC(=O)N(c3ccccc3)c3ccccc3)cc2)cc1 | > 100 µM | > 100 µM | > 100 µM | – | > 100 µM | – | > 100 µM | > 100 µM | > 100 µM | > 100 µM | > 100 µM | –
18 | Cc1cnc2[nH]c(-c3sccc3C)cc(=O)c2c1 | > 100 µM | > 100 µM | > 100 µM | > 100 µM | > 100 µM | – | > 100 µM | > 25.5 µM | > 100 µM | > 100 µM | 2.96 µM | –
19 | c1ccc(C2C3=C(CCCC3)Nc3nnnn32)cc1 (configuration not stated) | > 100 µM | > 100 µM | > 100 µM | – | > 100 µM | > 100 µM | > 100 µM | > 100 µM | > 100 µM | – | > 100 µM | –
20 | CC(C)c1cc(C(C)C)c(B(c2ccccc2)c2ccccc2)c(C(C)C)c1Br | > 100 µM | > 100 µM | > 100 µM | – | > 100 µM | > 100 µM | > 100 µM | > 100 µM | > 100 µM | > 100 µM | > 100 µM | –
21 | O=C1/C(=C/Cc2ccco2)N=C(c2ccccc2)N1c1nc2c(Cl)cc(Cl)cc2s1 | 73.5 µM | > 100 µM | > 100 µM | – | > 100 µM | 49.9 µM | > 100 µM | > 100 µM | 63.5 µM | 39.8 µM | 47.9 µM | –
22 | Cc1nc2ccccc2nc1N1CCCC1 | > 100 µM | > 100 µM | > 100 µM | > 100 µM | > 100 µM | – | > 100 µM | > 100 µM | > 100 µM | – | > 100 µM | –
